pIC50: −log10 of the molar value.
Key:
[1] = tested on: MCF7; test: Antiproliferative activity against human MCF7 cells assessed as reduction in cell viability incubated for 48 hrs by SRB assay; type: functional, cell-based; details: MCF7, 48 h
[2] = tested on: A549; test: Antiproliferative activity against human A549 cells assessed as reduction in cell viability incubated for 48 hrs by SRB assay; type: functional, cell-based; details: A549, 48 h
[3] = target: Histone deacetylase 3/Nuclear receptor corepressor 2 (HDAC3/NCoR2) (Homo sapiens, UniProt O15379); test: Inhibition of C-terminal His-tagged human recombinant full length HDAC3 (1 to 428 residues)/N-terminal GST-tagged human recombinant NCOR2 (395 to 489 residues) expressed in baculovirus-infected Sf9 cells assessed as reduction in 7-amino-4-methylcoumarin release using fluorogenic HDAC substrate 3 measured every 5 mins by fluorescence based analysis
[4] = target: Histone deacetylase 4 (Homo sapiens, UniProt P56524); test: Inhibition of N-terminal GST-tagged/C-terminal His-tagged human recombinant HDAC4 (627 to 1084 residues) expressed in baculovirus-infected Sf9 cells assessed as reduction in 7-amino-4-methylcoumarin release measured every 5 mins by fluorescence based analysis
[5] = target: Histone deacetylase 5 (Homo sapiens, UniProt Q9UQL6); test: Inhibition of N-terminal GST-tagged human recombinant full length HDAC5 expressed in baculovirus-infected Sf9 cells assessed as reduction in 7-amino-4-methylcoumarin release measured every 5 mins by fluorescence based analysis
[6] = target: Histone deacetylase 9 (Homo sapiens, UniProt Q9UKV0); test: Inhibition of C-terminal His-tagged human HDAC9 (604 to 1066 residues) expressed in baculovirus-infected Sf9 cells assessed as reduction in 7-amino-4-methylcoumarin release measured every 5 mins by fluorescence based analysis
Sequence of Histone deacetylase 9 (Q9UKV0 whole entry, the tested form may be a part): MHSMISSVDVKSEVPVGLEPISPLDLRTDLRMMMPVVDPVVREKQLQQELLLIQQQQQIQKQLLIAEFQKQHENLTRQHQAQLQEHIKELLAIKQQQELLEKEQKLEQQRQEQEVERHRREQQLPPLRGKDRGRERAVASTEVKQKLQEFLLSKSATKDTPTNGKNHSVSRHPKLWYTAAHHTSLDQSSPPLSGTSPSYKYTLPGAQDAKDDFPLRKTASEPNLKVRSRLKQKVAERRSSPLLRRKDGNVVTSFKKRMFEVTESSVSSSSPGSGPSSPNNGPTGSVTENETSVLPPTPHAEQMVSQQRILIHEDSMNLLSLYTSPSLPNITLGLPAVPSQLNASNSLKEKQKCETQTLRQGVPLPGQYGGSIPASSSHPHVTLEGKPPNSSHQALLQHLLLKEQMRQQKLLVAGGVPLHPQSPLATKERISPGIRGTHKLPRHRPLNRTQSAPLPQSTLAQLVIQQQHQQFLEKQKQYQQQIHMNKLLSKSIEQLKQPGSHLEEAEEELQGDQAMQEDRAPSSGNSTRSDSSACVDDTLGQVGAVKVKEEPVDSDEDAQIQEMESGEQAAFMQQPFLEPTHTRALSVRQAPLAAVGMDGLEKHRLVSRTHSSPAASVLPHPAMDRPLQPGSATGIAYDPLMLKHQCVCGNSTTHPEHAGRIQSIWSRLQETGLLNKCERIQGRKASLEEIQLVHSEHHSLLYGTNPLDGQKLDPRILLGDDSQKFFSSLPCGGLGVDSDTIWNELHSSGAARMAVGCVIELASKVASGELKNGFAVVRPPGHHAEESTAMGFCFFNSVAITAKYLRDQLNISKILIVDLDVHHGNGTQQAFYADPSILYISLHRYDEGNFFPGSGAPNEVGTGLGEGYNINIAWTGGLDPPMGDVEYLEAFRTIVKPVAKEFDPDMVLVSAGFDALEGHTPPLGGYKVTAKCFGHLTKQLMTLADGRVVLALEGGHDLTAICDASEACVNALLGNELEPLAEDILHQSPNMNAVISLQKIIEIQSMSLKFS

Sequence of Histone deacetylase 5 (Q9UQL6 whole entry, the tested form may be a part): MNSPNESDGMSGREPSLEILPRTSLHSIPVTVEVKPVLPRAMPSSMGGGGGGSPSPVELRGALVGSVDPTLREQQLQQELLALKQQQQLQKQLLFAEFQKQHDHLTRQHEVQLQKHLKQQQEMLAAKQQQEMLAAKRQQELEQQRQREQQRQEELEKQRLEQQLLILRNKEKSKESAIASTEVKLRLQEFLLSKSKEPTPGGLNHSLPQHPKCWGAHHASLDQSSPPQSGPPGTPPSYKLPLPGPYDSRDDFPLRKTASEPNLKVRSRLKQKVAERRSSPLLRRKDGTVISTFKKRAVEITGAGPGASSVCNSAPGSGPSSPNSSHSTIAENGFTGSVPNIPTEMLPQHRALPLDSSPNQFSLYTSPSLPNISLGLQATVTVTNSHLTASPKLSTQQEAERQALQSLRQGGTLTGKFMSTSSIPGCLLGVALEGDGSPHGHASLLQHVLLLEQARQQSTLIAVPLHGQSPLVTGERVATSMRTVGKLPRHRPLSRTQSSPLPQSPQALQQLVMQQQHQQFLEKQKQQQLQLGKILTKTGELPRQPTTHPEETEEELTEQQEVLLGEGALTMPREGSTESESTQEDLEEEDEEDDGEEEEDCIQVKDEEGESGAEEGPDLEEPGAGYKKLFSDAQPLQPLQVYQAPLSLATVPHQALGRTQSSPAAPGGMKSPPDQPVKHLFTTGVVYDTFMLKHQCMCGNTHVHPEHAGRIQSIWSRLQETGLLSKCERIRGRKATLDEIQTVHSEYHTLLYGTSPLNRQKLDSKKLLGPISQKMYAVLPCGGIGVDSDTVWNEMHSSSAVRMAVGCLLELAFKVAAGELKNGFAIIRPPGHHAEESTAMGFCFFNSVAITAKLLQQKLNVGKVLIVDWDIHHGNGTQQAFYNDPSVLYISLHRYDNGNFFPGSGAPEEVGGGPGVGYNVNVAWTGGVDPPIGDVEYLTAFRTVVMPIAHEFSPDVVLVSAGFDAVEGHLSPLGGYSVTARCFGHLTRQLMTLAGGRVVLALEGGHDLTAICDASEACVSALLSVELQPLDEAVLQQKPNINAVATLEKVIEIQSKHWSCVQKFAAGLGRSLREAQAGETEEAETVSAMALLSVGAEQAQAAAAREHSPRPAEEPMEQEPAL
Sequence of Histone deacetylase 4 (P56524 whole entry, the tested form may be a part): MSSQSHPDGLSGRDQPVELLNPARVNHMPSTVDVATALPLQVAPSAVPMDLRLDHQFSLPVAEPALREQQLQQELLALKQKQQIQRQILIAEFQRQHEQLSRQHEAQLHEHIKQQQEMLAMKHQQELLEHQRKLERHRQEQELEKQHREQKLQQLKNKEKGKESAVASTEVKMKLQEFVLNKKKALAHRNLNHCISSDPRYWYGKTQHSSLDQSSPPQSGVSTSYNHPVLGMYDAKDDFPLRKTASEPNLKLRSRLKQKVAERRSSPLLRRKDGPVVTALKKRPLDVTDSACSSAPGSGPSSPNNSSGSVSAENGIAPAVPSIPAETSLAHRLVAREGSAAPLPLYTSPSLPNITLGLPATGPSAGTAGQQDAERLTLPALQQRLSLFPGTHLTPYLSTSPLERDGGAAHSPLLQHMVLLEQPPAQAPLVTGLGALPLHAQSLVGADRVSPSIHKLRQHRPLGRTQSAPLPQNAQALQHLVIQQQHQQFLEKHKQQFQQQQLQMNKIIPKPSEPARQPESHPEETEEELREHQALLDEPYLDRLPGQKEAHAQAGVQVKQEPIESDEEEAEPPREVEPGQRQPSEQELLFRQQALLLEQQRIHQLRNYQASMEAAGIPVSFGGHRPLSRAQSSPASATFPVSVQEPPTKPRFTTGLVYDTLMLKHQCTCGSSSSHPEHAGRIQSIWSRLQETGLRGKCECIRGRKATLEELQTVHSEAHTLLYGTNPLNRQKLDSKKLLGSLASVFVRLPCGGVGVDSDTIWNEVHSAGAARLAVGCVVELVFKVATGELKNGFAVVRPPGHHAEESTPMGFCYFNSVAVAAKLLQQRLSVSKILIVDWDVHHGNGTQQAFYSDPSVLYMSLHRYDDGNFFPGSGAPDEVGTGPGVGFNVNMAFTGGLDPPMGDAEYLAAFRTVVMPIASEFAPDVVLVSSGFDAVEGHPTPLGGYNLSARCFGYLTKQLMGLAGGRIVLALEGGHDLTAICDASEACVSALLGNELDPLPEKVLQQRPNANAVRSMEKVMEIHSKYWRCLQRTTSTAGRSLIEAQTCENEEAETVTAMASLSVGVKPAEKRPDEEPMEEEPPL

SMILES	pIC50 [1]	pIC50 [2]	pIC50 [3]	pIC50 [4]	pIC50 [5]	pIC50 [6]
COc1cccc2c1C(=O)c1c(O)c3c(c(O)c1C2=O)C[C@@](O)(C(=O)CO)C[C@@H]3O[C@H]1C[C@H](N)[C@H](O)[C@H](C)O1 [DOXORUBICIN]	7.42	7.05	–	–	–	–
O=C(NC1CCN(Cc2ccccc2)C1)c1ccc(-c2noc(C(F)(F)F)n2)cc1 (stereo unspecified)	–	–	5.96	7.72	7.21	7.32
